Measured values as given in US5358947A, “Angiotensin II receptor blocking 2,3-substituted pyrazolo[1,5-a]-1,3,5-triazin-4(3H)-ones” (American Cyanamid Company, priority 1993, dated 1994).
Where “and” joins values, the source holds several entries; their conditions need not be identical. Identical values can stand only once.

Tested on: ANGIOTENSIN II (AII) VASOPRESSOR RESPONSE
Assay: AII Challenge: angiotensin II (AII) vasopressor response in conscious rats
Format: in vivo
Design: Response After AII / Change / Average Change: unit not given here
Settings: 10 mg/kg i.v.; for Change / Response After AII / Control Before AII: individual rat; for Control Before AII: in mmHg (unit assumed); for % Inhibition / Average Change: n = 2
Excerpt: By administering a compound of this invention to a rat, and then challenging with angiotensin II, a blockage of the vasopressor response is realized.
Conscious Male Okamoto-Aoki SHR, 16-20 weeks old, weighing approximately 330 g are purchased from Charles River Labs (Wilmington, Mass.). Conscious rats are restrained in a supine position with elastic tape. The area at the base of the tail is locally anesthetized by subcutaneous infiltration with 2% procaine. The ventral caudal artery and vein are isolated, and a cannula made of polyethylene (PE) 10-20 tubing (fused together by heat) is passed into the lower abdominal aorta and vena cava, respectively. The cannula is secured, heparinized (1,000 I.U./ml), sealed and the wound is closed. The animals are placed in plastic restraining cages in an upright position. The cannula is attached to s Statham P23Db pressure transducer, and pulsatile blood pressure is recorded to 10-15 minutes with a Gould Brush recorder. (Chan et al., (Drug Development Res., 18:75-94, 1989).
Angiotensin II (human sequence, Sigma Chem. Co., St. Louis, Mo.) of 0.05 and 0.1 ug/kg i.v. is injected into all rats (predosing response.). Then a test compound, vehicle or a known angiotensin II antagonist is administered i.v., i.p. or orally to each set of rats. The two doses of angiotensin II are given to each rat again at 30, 60, 90, 120, 180, 240 and 300 minutes post dosing the compound or vehicle. The vasopressor response of angiotensin II by a compound is calculated using the vasopressor response (increase in systolic blood pressure) of angiotensin II of each rat predosing the compound as 100%. A compound is considered active if at 30 mg/kg i.v. it antagonized at least 50% of the response.

[1] = AII 0.05 mcg/kg, 30 min post dose
[2] = AII 0.05 mcg/kg, 30 min post dose, listed as Ex. 11
[3] = AII 0.05 mcg/kg, 60 min post dose, listed as Ex. 11
[4] = AII 0.05 mcg/kg, 60 min post dose
[5] = AII 0.05 mcg/kg, 90 min post dose
[6] = AII 0.05 mcg/kg, 90 min post dose, listed as Ex. 11
[7] = AII 0.05 mcg/kg, 120 min post dose
[8] = AII 0.05 mcg/kg, 120 min post dose, listed as Ex. 11
[9] = AII 0.05 mcg/kg, 180 min post dose
[10] = AII 0.05 mcg/kg, 180 min post dose, listed as Ex. 11
[11] = AII 0.05 mcg/kg, 240 min post dose
[12] = AII 0.05 mcg/kg, 240 min post dose, listed as Ex. 11
[13] = AII 0.05 mcg/kg, 300 min post dose
[14] = AII 0.05 mcg/kg, 300 min post dose, listed as Ex. 11
[15] = AII 0.1 mcg/kg, 30 min post dose
[16] = AII 0.1 mcg/kg, 30 min post dose, listed as Ex. 11
[17] = AII 0.1 mcg/kg, 60 min post dose
[18] = AII 0.1 mcg/kg, 90 min post dose
[19] = AII 0.1 mcg/kg, 90 min post dose, listed as Ex. 11
[20] = AII 0.1 mcg/kg, 120 min post dose
[21] = AII 0.1 mcg/kg, 120 min post dose, listed as Ex. 11
[22] = AII 0.1 mcg/kg, 180 min post dose
[23] = AII 0.1 mcg/kg, 240 min post dose
[24] = AII 0.1 mcg/kg, 240 min post dose, listed as Ex. 11
[25] = AII 0.1 mcg/kg, 300 min post dose
[26] = AII 0.1 mcg/kg, 300 min post dose, listed as Ex. 11

CCCCc1nc2cc(-c3ccco3)nn2c(=O)n1Cc1ccc(-c2ccccc2-c2nnn[nH]2)cc1 [Example 11, 2-Butyl-7-(2-furanyl)-3-[[2'-(1H-tetrazol-5-yl)[1,1'-biphenyl]-4-yl]methyl]pyrazolo[1,5-a]-1,3,5-triazin-4(3H)-one]
Change [1]: 0
Response After AII [1]: 200
Response After AII [2]: 205
Control Before AII [2]: 200 and 205
% Inhibition [1]: 100%
Average Change [1]: 0
Change [3]: 13 and 5
Response After AII [3]: 198 and 200
Control Before AII [3]: 185 and 195
% Inhibition [4]: 76%
Average Change [4]: 9
Response After AII [5]: 200
Change [6]: 10 and 15
Control Before AII [6]: 190 and 185
% Inhibition [5]: 67%
Average Change [5]: 12.5
Response After AII [7]: 195
Control Before AII [7]: 185
Change [8]: 20 and 10
Response After AII [8]: 205
% Inhibition [7]: 60%
Average Change [7]: 15
Response After AII [9]: 195
Control Before AII [9]: 185
Change [10]: 10 and 20
Response After AII [10]: 205
% Inhibition [9]: 60%
Average Change [9]: 15
Control Before AII [11]: 185
Change [12]: 25 and 15
Response After AII [12]: 210 and 200
% Inhibition [11]: 47%
Average Change [11]: 20
Control Before AII [13]: 185
Change [14]: 30 and 20
Response After AII [14]: 215 and 205
% Inhibition [13]: 33%
Average Change [13]: 25
Response After AII [15]: 192
Change [16]: 2 and 0
Response After AII [16]: 205
Control Before AII [16]: 190 and 205
% Inhibition [15]: 98%
Average Change [15]: 1
Change [17]: 10
Response After AII [17]: 205
Control Before AII [17]: 195
% Inhibition [17]: 79%
Average Change [17]: 10
Response After AII [18]: 210
Control Before AII [18]: 190
Change [19]: 20 and 15
Response After AII [19]: 205
% Inhibition [18]: 63%
Average Change [18]: 17.5
Response After AII [20]: 200
Control Before AII [20]: 185
Change [21]: 20 and 15
Response After AII [21]: 205
% Inhibition [20]: 63%
Average Change [20]: 17.5
Change [22]: 25
Response After AII [22]: 210
Control Before AII [22]: 185
% Inhibition [22]: 47%
Average Change [22]: 25
Response After AII [23]: 210
Control Before AII [23]: 185
Change [24]: 30 and 25
Response After AII [24]: 205
Control Before AII [24]: 175
% Inhibition [23]: 42%
Average Change [23]: 27.5
Response After AII [25]: 210
Control Before AII [25]: 185
Change [26]: 25 and 30
Response After AII [26]: 215
% Inhibition [25]: 42%
Average Change [25]: 27.5
